Patent US10208056B2, “Condensed tricyclic compounds as protein kinase inhibitors” (FUNDACIÓN DEL SECTOR PÚBLICO ESTATAL CENTRO NACIONAL DE …, priority 2015, dated 2019)
pEC50, pIC50: −log10 of the molar value. Read-outs that look alike come from different tables or passages of the source.

Columns and labels:
CDK8/Cyclin C = CDK8/Cyclin C (Homo sapiens (Human), UniProt P49336); experiment: CDK8/Cyclin C binding assay (LanthaScreen Eu-Kinase Binding Assay); conditions: binding assay
Method: The enzyme has been purchase from Invitrogen (PV4402) as a dimer of full-length His-tagged recombinant human proteins.
Assays were performed in 384-well plates. The final read out was generated using an EnVision plate reader (Perkin-Elmer).

Haspin kinase = Haspin kinase (Homo sapiens (Human), UniProt Q8TF76); experiment: Haspin kinase assay (ADP-Glo); type: biochemical; conditions: ATP 150 μM
Haspin kinase, sequence (Q8TF76 484-798): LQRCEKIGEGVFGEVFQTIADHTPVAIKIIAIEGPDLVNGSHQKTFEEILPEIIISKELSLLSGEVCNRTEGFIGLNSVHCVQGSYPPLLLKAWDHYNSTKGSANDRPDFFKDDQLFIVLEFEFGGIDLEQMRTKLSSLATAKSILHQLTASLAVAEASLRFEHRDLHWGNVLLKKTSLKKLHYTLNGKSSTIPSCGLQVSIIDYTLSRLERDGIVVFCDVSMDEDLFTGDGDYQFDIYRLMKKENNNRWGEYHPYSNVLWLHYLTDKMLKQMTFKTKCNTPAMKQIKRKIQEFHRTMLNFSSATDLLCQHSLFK
Outline: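 Compounds in 1:3 serial dilutions (1% DMSO final) were incubated 60 min at 30 °C with 20 nM recombinant GST-Haspin kinase domain and 150 μM ATP, without substrate, in pH 7.4 HEPES/MgCl2 buffer. ADP formed was read by luciferase luminescence and normalized to uninhibited enzyme to give % inhibition.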

intracellular CDK8 = intracellular CDK8 (Homo sapiens (Human), UniProt P49336); experiment: Endogenous phosphoSTAT1 inhibition in SW620 cells growing in 10% FBS; type: cell-based; conditions: read-out: SW620 P-STAT1(S727)
intracellular CDK8, sequence (P49336 whole entry): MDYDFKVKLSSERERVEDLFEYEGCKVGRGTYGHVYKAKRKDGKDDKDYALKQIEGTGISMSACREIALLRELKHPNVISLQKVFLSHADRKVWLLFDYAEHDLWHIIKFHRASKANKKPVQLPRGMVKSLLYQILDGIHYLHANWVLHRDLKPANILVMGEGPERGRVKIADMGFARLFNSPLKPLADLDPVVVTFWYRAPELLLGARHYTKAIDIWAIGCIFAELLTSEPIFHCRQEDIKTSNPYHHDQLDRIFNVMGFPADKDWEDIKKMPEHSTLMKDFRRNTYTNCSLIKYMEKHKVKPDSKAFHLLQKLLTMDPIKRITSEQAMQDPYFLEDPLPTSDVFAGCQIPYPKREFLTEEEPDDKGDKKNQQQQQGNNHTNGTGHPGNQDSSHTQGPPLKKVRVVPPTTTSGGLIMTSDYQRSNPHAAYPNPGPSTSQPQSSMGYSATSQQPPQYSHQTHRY
intracellular CDK8, sequence (P24863 whole entry partner): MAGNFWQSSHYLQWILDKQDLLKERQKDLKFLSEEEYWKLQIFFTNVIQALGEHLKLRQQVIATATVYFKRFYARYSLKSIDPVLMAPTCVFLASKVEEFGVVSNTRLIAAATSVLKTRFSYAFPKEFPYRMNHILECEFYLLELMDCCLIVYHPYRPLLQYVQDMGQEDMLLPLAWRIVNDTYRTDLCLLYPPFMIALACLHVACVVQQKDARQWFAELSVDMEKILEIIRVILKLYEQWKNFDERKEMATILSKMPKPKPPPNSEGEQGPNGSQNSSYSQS
intracellular CDK8, sequence (Q93074 whole entry partner): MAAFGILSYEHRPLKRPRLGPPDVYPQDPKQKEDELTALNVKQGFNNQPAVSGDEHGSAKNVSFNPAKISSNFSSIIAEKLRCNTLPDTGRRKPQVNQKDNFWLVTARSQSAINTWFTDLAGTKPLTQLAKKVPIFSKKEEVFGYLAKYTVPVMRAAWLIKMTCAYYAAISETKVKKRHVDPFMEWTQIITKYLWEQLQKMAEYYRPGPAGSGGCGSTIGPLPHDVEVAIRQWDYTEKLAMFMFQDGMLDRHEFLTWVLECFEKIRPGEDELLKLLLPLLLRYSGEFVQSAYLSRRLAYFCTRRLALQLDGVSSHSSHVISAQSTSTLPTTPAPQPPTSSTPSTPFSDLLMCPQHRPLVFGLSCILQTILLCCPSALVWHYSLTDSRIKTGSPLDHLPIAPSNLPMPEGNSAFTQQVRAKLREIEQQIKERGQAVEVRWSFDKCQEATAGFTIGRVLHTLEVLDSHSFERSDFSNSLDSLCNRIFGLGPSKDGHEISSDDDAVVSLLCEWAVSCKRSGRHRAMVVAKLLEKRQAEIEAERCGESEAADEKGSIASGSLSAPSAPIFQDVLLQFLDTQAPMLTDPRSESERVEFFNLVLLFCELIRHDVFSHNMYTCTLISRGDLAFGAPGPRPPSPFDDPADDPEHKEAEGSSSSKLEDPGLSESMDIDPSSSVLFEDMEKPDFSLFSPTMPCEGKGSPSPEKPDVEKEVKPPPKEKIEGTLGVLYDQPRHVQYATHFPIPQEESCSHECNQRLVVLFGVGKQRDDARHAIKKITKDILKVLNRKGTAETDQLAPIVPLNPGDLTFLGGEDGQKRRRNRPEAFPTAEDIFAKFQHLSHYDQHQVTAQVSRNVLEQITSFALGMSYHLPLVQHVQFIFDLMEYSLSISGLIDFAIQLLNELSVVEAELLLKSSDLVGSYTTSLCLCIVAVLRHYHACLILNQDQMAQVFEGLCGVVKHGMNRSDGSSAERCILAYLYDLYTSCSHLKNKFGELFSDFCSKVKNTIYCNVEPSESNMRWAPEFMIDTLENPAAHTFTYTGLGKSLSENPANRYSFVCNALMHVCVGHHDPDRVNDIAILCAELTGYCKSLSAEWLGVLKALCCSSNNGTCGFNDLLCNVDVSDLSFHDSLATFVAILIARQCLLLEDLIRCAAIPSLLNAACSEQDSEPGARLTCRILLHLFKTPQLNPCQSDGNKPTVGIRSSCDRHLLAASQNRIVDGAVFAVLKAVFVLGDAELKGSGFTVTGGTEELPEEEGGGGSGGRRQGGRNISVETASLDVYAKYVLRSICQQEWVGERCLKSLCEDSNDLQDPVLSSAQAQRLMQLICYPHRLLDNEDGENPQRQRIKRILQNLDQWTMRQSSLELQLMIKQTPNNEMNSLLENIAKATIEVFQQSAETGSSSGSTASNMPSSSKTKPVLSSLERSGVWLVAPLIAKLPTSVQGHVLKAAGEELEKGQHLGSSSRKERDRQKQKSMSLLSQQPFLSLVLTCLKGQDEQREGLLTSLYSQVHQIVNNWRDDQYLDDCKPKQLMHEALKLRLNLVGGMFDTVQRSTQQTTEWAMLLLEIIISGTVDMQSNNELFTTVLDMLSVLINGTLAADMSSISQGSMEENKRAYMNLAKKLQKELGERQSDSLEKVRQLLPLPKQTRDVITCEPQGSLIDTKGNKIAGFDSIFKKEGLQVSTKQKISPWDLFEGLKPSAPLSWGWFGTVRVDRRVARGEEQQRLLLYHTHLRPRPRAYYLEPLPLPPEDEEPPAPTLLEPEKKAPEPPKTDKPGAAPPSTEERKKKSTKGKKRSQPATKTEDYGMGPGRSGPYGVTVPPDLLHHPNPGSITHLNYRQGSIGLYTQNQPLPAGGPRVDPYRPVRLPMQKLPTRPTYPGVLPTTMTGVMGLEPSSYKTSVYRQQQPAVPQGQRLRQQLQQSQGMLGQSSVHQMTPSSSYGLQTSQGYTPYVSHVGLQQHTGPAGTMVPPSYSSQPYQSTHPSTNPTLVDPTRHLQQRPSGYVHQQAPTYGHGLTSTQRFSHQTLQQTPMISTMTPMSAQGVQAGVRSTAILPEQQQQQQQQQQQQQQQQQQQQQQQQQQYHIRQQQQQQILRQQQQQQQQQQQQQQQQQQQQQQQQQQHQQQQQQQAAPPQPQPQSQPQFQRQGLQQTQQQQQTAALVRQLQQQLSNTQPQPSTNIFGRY
Outline: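 SW620 cells in 10% FBS treated 8 h with compound, then lysed and phospho-STAT1 measured relative to total STAT1.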

intracellular HASPIN = intracellular HASPIN (Homo sapiens (Human), UniProt Q8TF76); experiment: Endogenous phosphoH3 inhibition in SW620 cells growing in 10% FBS; type: cell-based; conditions: read-out: SW620 pH3(T3)
intracellular HASPIN, sequence (Q8TF76 whole entry): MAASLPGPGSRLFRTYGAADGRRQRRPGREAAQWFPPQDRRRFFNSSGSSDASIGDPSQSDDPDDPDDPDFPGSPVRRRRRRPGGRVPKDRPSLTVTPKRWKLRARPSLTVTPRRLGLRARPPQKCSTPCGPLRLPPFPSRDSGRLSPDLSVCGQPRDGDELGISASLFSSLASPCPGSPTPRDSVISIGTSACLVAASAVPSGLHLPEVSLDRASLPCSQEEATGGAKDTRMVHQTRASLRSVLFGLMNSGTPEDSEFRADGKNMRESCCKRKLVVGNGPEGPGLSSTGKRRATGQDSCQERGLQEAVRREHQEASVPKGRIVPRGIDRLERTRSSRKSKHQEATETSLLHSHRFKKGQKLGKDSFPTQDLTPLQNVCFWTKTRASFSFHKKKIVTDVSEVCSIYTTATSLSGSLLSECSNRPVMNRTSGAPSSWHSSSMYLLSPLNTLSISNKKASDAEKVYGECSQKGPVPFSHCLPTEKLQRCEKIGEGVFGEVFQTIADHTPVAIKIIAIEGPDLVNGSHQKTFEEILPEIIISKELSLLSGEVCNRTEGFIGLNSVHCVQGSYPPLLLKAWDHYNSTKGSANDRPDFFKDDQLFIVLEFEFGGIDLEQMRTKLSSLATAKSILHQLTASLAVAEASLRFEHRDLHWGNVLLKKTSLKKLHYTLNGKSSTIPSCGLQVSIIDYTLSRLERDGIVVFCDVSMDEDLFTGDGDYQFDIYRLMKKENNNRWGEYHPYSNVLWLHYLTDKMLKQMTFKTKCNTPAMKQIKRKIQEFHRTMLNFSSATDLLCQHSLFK
Method: Endogenous phosphoH3 inhibition can be screened in cells growing in 10% FBS. Cells are plated as described before and treated for 8 h with compounds as described before. Then cells are lysated and phospho H3 evaluated as described before. The percentage of phosphorylated H3 vs total H3 in cells treated with DMSO is taken as hundred percent of phosphorylation. The percentage of H3 phosphorylation is finally plotted against concentration for each compound and EC50s for intracellular HASPIN inhibition are calculated using ActivityBase from IDBS.

MV4:11 = experiment: In vitro cell proliferation assay (CellTiter-Glo), MV4:11; type: cell-based; conditions: Homo sapiens, MV4-11, growth inhibition, read-out: GI50 MV4:11
SW620 = experiment: In vitro cell proliferation assay (CellTiter-Glo), SW620; type: cell-based, human; conditions: Homo sapiens, SW-620, growth inhibition, read-out: GI50 SW620
Molm13 = experiment: In vitro cell proliferation assay (CellTiter-Glo), Molm13; type: cell-based; conditions: Homo sapiens, MOLM-13, growth inhibition, read-out: GI50 Molm13

CDK8/Cyclin C, sequence (P49336 whole entry): as the sequence (P49336 whole entry) above
CDK8/Cyclin C, sequence (P24863 whole entry partner): as the sequence (P24863 whole entry partner) above

pIC50 (CDK8/Cyclin C)	pIC50 (Haspin kinase)	pEC50 (intracellular CDK8; semiquantitative)	pEC50 (intracellular HASPIN; semiquantitative)	GI50 (MV4:11; semiquantitative) [nM]	GI50 (SW620; semiquantitative) [nM]	GI50 (Molm13; semiquantitative) [nM]	pEC50 (intracellular CDK8; quantitative)	pEC50 (intracellular HASPIN; quantitative)	GI50 (MV4:11; quantitative) [nM]	GI50 (SW620; quantitative) [nM]	GI50 (Molm13; quantitative) [nM]	Structure (SMILES)
8.49	6.45	> 6.30	> 6.30	< 1000	10000 to 100000	< 1000						CCn1c(C(N)=O)c(-c2ccccc2OC)c2c1-c1ccncc1OC2(C)C [Example 68]
8.35	6.39			1000 to 10000	10000 to 100000	1000 to 10000						NC(=O)c1cc2c([nH]1)-c1ccncc1O[C@H]2C1CCOCC1 (single isomer, unassigned) [Example 72]
8.85	7.65	> 6.30	> 6.30	< 1000	1000 to 10000	< 1000						CC1(C)Oc2cnccc2-c2c1cc(C(N)=O)n2CCF [Example 52]
8.85	7.43						8.82	8.80	115	3390	349	CCn1c(C(N)=O)cc2c1-c1ccncc1OC2(C)C [Example 43]
